Assay results reported in PMC12787479, “Steam Explosion as a Green Pretreatment Strategy to Enhance Total Phenolics Release and Biological Activities in Potentilla discolor Bunge Stems” (Molecules, 2025).
Marks after values point to notes of the source that are not given here.

Assays:
Type in all cases: biochemical
[1] = FRAP reduction assay (ferric reducing antioxidant power); details: absorbance at 700 nm at a concentration of 600 μg/mL
Protocol: Extraction solutions of PDB stems at 0.4, 0.6, 0.8, 1.0, or 1.2 mg/mL (0.1 mL each) were mixed with an equal volume (0.1 mL) of 30 μmol/mL K3[Fe(CN)6] solution (1:1, v/v) and incubated at 50 °C for 20 min. Then, 0.2 mL of 10% (w/v) trichloroacetic acid (TCA) solution was added, and the resulting mixture was defined as solution A. Finally, 0.1 mL of solution A was mixed with 0.1 mL of 3.4 μmol/mL FeCl3 solution, and the absorbance of the mixture was measured at 700 nm. […] All experiments were performed in triplicate, and results are expressed as mean ± SD.

[2] = ABTS free radical scavenging assay; details: extract obtained under optimized extraction conditions; 30 min dark, 734 nm
Protocol: The solution was then diluted fivefold before use. […] For standard curve construction, ascorbic acid solutions at concentrations of 2, 4, 8, 15, 25, and 50 μg/mL were treated in the same manner. All experiments were performed in triplicate, and results were expressed as mean ± SD. The absorbance values were measured at 734 nm, and the scavenging rate was calculated using Equation (1). […] All data were represented as mean ± standard deviation (SD) and the significant statistical differences was determined by a one-way ANOVA test using SPSS version 22.0. Different lowercase letters were regarded as significant differences (p < 0.05).

[3] = DPPH free radical scavenging assay; details: extract obtained under optimized extraction conditions; 25 °C, 30 min, 517 nm
Protocol: DPPH ethanol solution (0.12 μmol/mL, 0.1 mL) was mixed with 0.1 mL different concentrations of PDB stem solutions (10, 25, 50, 75, and 100 μg/mL). Incubation was carried out in a dark environment at 25 °C for 30 min. […] The absorbance values were measured at 517 nm using an enzyme meter. All experiments were performed in triplicate, and results are expressed as mean ± standard deviation (SD). The calculation formula was as follows.(3) Radical scavenging rate %=[…]×100% where Ac was the absorbance of blank group; As was the absorbance of PDB stem group, respectively. […] All data were represented as mean ± standard deviation (SD) and the significant statistical differences was determined by a one-way ANOVA test using SPSS version 22.0. Different lowercase letters were regarded as significant differences (p < 0.05).

Q: With `O=C1O[C@H]([C@@H](O)CO)C(O)=C1O` [Ascorbic acid] as the compound, how does the “FRAP (A700, 600 μg/mL)” value [1] read?
A: Its value is 3.17 ± 0.05 ^a.

Q: What about the “FRAP (A700, 600 μg/mL)” value ([1]; listed as ascorbic acid) of the same compound?
A: Its value is 3.17 ± 0.05.

Q: And the “ABTS·IC50” value [2]?
A: Its value is 20.71 ± 0.42 ^a μg/mL.

Q: And the “DPPH·IC50” value [3]?
A: Its value is 3.47 ± 0.02 ^a μg/mL.
